Measured values reported in patent publication US11878970B2, “Allosteric chromenone inhibitors of phosphoinositide 3-kinase (PI3K) for the treatment of disease” (Petra Pharma Corporation, priority 2021, dated 2024).

Key:
[1] = biological target: T1, PI3K-α (PIK3CA) wild-type (WT), p110α/p85α complex (Homo sapiens, UniProt P42336); assay: PI3K-alpha kinase (PIK3CA) biochemical activity, ADP-Glo, wild-type; conditions: Soy PI lipid substrate
T1 construct: Recombinant, catalytically active human full length PIK3KA Wild-type and H1047R mutant; 6×His (N); purchased EMD Millipore Sigma 14-602M
Summary of the method: (§1)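 ADP formation measured by ADP-Glo luminescence after reaction at 27 °C to about 10% ATP turnover, using 20 uM ATP, 50 uM PIP2diC8 or soy PI lipid, HEPES pH 7.4 with MgCl2. Enzyme (1-5 nM WT or H1047R p110α/p85α) and compound preincubated 1 h first; 10-point 1:3 curves fitted four-parameter for IC50.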

[2] = biological target: T2, PI3K-α (PIK3CA) H1047R mutant, p110α/p85α complex (Homo sapiens, UniProt P42336, H1047R); assay: PI3K-alpha kinase (PIK3CA) biochemical activity, ADP-Glo, H1047R mutant; conditions: Soy PI lipid substrate
T2 construct: Recombinant, catalytically active human full length PIK3KA Wild-type and H1047R mutant; 6×His (N); purchased EMD Millipore Sigma 14-792M
Summary of the method: as §1

T2 sequence (P42336 whole entry H1047R): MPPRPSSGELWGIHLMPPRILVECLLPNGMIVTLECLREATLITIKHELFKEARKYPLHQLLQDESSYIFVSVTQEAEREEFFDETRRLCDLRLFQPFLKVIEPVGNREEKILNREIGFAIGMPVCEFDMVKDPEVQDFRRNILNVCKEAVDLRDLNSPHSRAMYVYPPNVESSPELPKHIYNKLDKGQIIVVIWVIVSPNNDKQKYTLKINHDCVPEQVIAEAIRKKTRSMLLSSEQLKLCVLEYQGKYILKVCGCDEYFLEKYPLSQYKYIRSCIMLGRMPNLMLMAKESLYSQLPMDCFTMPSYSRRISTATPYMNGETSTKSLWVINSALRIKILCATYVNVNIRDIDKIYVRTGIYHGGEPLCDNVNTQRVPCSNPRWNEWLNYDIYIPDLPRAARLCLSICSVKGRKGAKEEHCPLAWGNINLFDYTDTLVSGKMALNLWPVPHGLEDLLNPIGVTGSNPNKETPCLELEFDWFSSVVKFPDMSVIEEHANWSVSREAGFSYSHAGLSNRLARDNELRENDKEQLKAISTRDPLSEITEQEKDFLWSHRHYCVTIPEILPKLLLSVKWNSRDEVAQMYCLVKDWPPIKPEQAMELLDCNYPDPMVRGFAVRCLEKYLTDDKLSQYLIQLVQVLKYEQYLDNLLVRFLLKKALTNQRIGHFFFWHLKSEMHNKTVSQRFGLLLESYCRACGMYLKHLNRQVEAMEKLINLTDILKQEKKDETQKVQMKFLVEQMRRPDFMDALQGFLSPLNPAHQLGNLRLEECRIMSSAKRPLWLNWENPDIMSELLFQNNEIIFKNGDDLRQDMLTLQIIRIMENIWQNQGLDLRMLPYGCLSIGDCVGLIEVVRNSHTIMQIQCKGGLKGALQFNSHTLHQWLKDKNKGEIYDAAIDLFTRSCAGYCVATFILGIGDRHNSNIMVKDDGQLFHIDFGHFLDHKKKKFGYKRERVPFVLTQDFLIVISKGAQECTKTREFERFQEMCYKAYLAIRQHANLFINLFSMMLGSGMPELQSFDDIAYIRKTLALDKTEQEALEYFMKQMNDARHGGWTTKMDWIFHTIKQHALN
T2 sequence (P27986 whole entry partner): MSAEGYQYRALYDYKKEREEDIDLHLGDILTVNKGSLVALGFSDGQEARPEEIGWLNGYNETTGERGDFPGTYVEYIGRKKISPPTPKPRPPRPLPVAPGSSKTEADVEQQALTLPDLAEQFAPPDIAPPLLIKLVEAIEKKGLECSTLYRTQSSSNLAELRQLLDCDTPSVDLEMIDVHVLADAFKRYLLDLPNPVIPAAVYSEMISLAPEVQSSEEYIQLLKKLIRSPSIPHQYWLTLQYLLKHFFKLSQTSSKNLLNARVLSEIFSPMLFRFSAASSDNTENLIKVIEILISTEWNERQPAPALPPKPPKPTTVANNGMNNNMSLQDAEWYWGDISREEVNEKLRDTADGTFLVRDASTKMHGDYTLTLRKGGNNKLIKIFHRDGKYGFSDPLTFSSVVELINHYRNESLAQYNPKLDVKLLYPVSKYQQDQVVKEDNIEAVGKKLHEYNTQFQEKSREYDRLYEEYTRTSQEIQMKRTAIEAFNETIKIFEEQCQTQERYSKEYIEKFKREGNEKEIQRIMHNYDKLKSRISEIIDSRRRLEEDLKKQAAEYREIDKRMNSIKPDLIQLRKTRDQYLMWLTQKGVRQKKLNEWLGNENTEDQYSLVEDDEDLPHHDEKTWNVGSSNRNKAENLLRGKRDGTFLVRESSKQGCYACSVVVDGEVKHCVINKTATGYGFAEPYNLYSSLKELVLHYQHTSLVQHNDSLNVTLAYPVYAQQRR

Q: How did the IC50 [1] turn out when `Cc1cc(C(C)Nc2ccccc2C(=O)O)c2oc(-c3ccc4cc(C)nn4c3)cc(=O)c2c1` (single isomer, unassigned) [Example 134, 2-[1-[6-Methyl-2-(2-methylpyrazolo[1,5-a]pyridin-6-yl)-4-oxo-chromen-8-yl]ethylamino]benzoic acid] was run?
A: 1000 to 5000 nM

Q: What about the IC50 [2] of the same compound?
A: < 500 nM

Q: With `Cc1cc(C(C)Nc2ccccc2C(=O)O)c2oc(-c3ccc4cn(C)nc4n3)cc(=O)c2c1` (single isomer, unassigned) [Example 135, 2-[1-[6-Methyl-2-(2-methylpyrazolo[3,4-b]pyridin-6-yl)-4-oxo-chromen-8-yl]ethylamino]benzoic acid] as the compound, how does the IC50 [1] read?
A: 5000 to 10000 nM

Q: What about the IC50 [2] of the same compound?
A: < 500 nM

Q: Which results are given for `Cc1cc(C(C)Nc2ccccc2C(=O)O)c2oc(-c3cccc4c3cnn4C)cc(=O)c2c1` (single isomer, unassigned) [Example 136, 2-[1-[6-Methyl-2-(1-methylindazol-4-yl)-4-oxo-chromen-8-yl]ethylamino]benzoic acid]?
A: IC50 [1]: 1000 to 5000 nM; IC50 [2]: < 500 nM

Q: `Cc1cc(C(C)Nc2ccccc2C(=O)O)c2oc(-c3ccc4c(c3)CN(C)C4=O)c(C)c(=O)c2c1` (single isomer, unassigned) [Example 137, 2-[1-[3,6-Dimethyl-2-(2-methyl-1-oxo-isoindolin-5-yl)-4-oxo-chromen-8-yl]ethylamino]benzoic acid] was tested. Which IC50 [1] did it give?
A: 1000 to 5000 nM

Q: And the IC50 [2]?
A: < 500 nM

Q: Which results are given for `Cc1cc(C(C)Nc2ccccc2C(=O)O)c2oc(-c3ccc4c(cnn4CC4COC4)c3)cc(=O)c2c1` (single isomer, unassigned) [Example 138, 2-[1-[6-Methyl-2-[1-(oxetan-3-ylmethyl)indazol-5-yl]-4-oxo-chromen-8-yl]ethylamino]benzoic acid]?
A: IC50 [1]: > 10000 nM; IC50 [2]: 500 to 1000 nM

Q: What does the source list for `Cc1cc(C(C)Nc2ccccc2C(=O)O)c2oc(-c3cn(C)c4ccccc34)c(C)c(=O)c2c1` (single isomer, unassigned) [Example 140, 2-[1-[3,6-Dimethyl-2-(1-methylindol-3-yl)-4-oxo-chromen-8-yl]ethylamino]benzoic acid]?
A: IC50 [1]: 1000 to 5000 nM; IC50 [2]: < 500 nM

Q: `Cc1cc(C(C)Nc2ccccc2C(=O)O)c2oc(-c3ccc4c(n3)N(C)C(=O)C4)cc(=O)c2c1` (single isomer, unassigned) [Example 141, 2-[1-[6-Methyl-2-(1-methyl-2-oxo-3H-pyrrolo[2,3-b]pyridin-6-yl)-4-oxo-chromen-8-yl]ethylamino]benzoic acid] was tested. Which IC50 [1] did it give?
A: 1000 to 5000 nM

Q: And the IC50 [2]?
A: < 500 nM

Q: `Cc1cc(C(C)Nc2ccccc2C(=O)O)c2oc(-c3ccc4nc(C)cn4n3)c(C)c(=O)c2c1` (single isomer, unassigned) [Example 142, 2-[1-[3,6-Dimethyl-2-(2-methylimidazo[1,2-b]pyridazin-6-yl)-4-oxo-chromen-8-yl]ethylamino]benzoic acid] was tested. Which IC50 [1] did it give?
A: 1000 to 5000 nM

Q: And the IC50 [2]?
A: < 500 nM

Q: With `Cc1cc(C(C)Nc2ccccc2C(=O)O)c2oc(-c3cn(C)c4ccccc34)cc(=O)c2c1` (single isomer, unassigned) [Example 143, 2-[1-[6-Methyl-2-(1-methylindol-3-yl)-4-oxo-chromen-8-yl]ethylamino]benzoic acid] as the compound, how does the IC50 [1] read?
A: 500 to 1000 nM

Q: What about the IC50 [2] of the same compound?
A: < 500 nM

Q: For `Cc1cc(C(C)Nc2ccccc2C(=O)O)c2oc(-c3nn(C)c4ccccc34)c(C)c(=O)c2c1` (single isomer, unassigned) [Example 146, 2-[1-[3,6-Dimethyl-2-(1-methylindazol-3-yl)-4-oxo-chromen-8-yl]ethylamino]benzoic acid], which IC50 [1] is on record?
A: 500 to 1000 nM

Q: What about the IC50 [2] of the same compound?
A: < 500 nM

Q: With `Cc1cc(C(C)Nc2ccccc2C(=O)O)c2oc(-c3cc4ncccc4[nH]3)cc(=O)c2c1` (single isomer, unassigned) [Example 147, 2-[1-[6-Methyl-4-oxo-2-(1H-pyrrolo[3,2-b]pyridin-2-yl)chromen-8-yl]ethylamino]benzoic acid] as the compound, how does the IC50 [1] read?
A: 1000 to 5000 nM

Q: And the IC50 [2]?
A: < 500 nM

Q: Which results are given for `Cc1c(-c2ccc3nn(C)cc3c2)oc2c(C(C)Nc3ccccc3C(=O)O)cc(F)cc2c1=O` (single isomer, unassigned) [Example 148, 2-[1-[6-Fluoro-3-methyl-2-(2-methylindazol-5-yl)-4-oxo-chromen-8-yl]ethylamino]benzoic acid]?
A: IC50 [1]: 500 to 1000 nM; IC50 [2]: < 500 nM

Q: What does the source list for `Cc1cc(C(C)Nc2ccccc2C(=O)O)c2oc(-c3c[nH]c4ccccc34)c(C)c(=O)c2c1` (single isomer, unassigned) [Example 154, 2-[1-[2-(1H-Indol-3-yl)-3,6-dimethyl-4-oxo-chromen-8-yl]ethylamino]benzoic acid]?
A: IC50 [1]: 1000 to 5000 nM; IC50 [2]: < 500 nM

Q: Which results are given for `Cc1cc(C(C)Nc2ccccc2C(=O)O)c2oc(-c3c[nH]c4ccccc34)cc(=O)c2c1` (single isomer, unassigned) [Example 155, 2-[1-[2-(1H-Indol-3-yl)-6-methyl-4-oxo-chromen-8-yl]ethylamino]benzoic acid]?
A: IC50 [1]: 1000 to 5000 nM; IC50 [2]: < 500 nM

Q: What does the source list for `Cc1cc(C(C)Nc2ccccc2C(=O)O)c2oc(-c3ccc4ccnn4c3)c(C)c(=O)c2c1` (single isomer, unassigned) [Example 157, 2-[1-(3,6-Dimethyl-4-oxo-2-pyrazolo[1,5-a]pyridin-6-yl-chromen-8-yl)ethylamino]benzoic acid]?
A: IC50 [1]: 1000 to 5000 nM; IC50 [2]: < 500 nM

Q: `Cc1cc(C(C)Nc2ccccc2C(=O)O)c2oc(-c3ccc4ccn(C)c4n3)cc(=O)c2c1` (single isomer, unassigned) [Example 159, 2-[1-[6-Methyl-2-(1-methylpyrrolo[2,3-b]pyridin-6-yl)-4-oxo-chromen-8-yl]ethylamino]benzoic acid] was tested. Which IC50 [1] did it give?
A: 1000 to 5000 nM

Q: What about the IC50 [2] of the same compound?
A: < 500 nM

Q: What does the source list for `Cc1cc(C(C)Nc2ccccc2C(=O)O)c2oc(-c3ccn4cnnc4c3)cc(=O)c2c1` (single isomer, unassigned) [Example 161, 2-[1-[6-Methyl-4-oxo-2-([1,2,4]triazolo[4,3-a]pyridin-7-yl)chromen-8-yl]ethylamino]benzoic acid]?
A: IC50 [1]: > 10000 nM; IC50 [2]: 500 to 1000 nM

Q: For `Cc1cc(C(C)Nc2ccccc2C(=O)O)c2oc(-c3ccc4nnc(C(F)(F)F)n4c3)cc(=O)c2c1` (single isomer, unassigned) [Example 162, 2-[1-[6-Methyl-4-oxo-2-[3-(trifluoromethyl)-[1,2,4]triazolo[4,3-a]pyridin-6-yl]chromen-8-yl]ethylamino]benzoic acid], which IC50 [1] is on record?
A: > 10000 nM

Q: What about the IC50 [2] of the same compound?
A: 500 to 1000 nM

Q: How did the IC50 [1] turn out when `Cc1cc(C(C)Nc2ccccc2C(=O)O)c2oc(-c3ccc4c(cnn4C)n3)cc(=O)c2c1` (single isomer, unassigned) [Example 164, 2-[1-[6-Methyl-2-(1-methylpyrazolo[4,3-b]pyridin-5-yl)-4-oxo-chromen-8-yl]ethylamino]benzoic acid] was run?
A: 1000 to 5000 nM

Q: And the IC50 [2]?
A: < 500 nM

Q: How did the IC50 [1] turn out when `Cc1cc(C(C)Nc2ccccc2C(=O)O)c2oc(-c3ccc4c(c3)c(C)nn4C)cc(=O)c2c1` (single isomer, unassigned) [Example 165, 2-[1-[2-(1,3-Dimethylindazol-5-yl)-6-methyl-4-oxo-chromen-8-yl]ethylamino]benzoic acid] was run?
A: < 500 nM

Q: And the IC50 [2]?
A: < 500 nM

Q: With `Cc1cc(C(C)Nc2ccccc2C(=O)O)c2oc(-c3ccc4c(c3)ncn4C)cc(=O)c2c1` (single isomer, unassigned) [Example 166, 2-[1-[6-Methyl-2-(1-methylbenzimidazol-5-yl)-4-oxo-chromen-8-yl]ethylamino]benzoic acid] as the compound, how does the IC50 [1] read?
A: 5000 to 10000 nM

Q: And the IC50 [2]?
A: < 500 nM

Q: `Cc1nc2ccc(-c3cc(=O)c4cc(C(F)(F)F)cc(C(C)Nc5ccc(Cl)nc5C(=O)O)c4o3)cc2s1` (single isomer, unassigned) [Example 167, 6-Chloro-3-[1-[2-(2-methyl-1,3-benzothiazol-6-yl)-4-oxo-6-(trifluoromethyl)chromen-8-yl]ethylamino]pyridine-2-carboxylic acid] was tested. Which IC50 [1] did it give?
A: 1000 to 5000 nM

Q: And the IC50 [2]?
A: < 500 nM

Q: Which results are given for `Cc1cc(C(C)Nc2cccc(F)c2C(=O)O)c2oc(-c3ccc4nn(C)cc4c3)cc(=O)c2c1` (single isomer, unassigned) [Example 172, 2-Fluoro-6-[1-[6-methyl-2-(2-methylindazol-5-yl)-4-oxo-chromen-8-yl]ethylamino]benzoic acid]?
A: IC50 [1]: < 500 nM; IC50 [2]: < 500 nM

Q: Which results are given for `Cc1cc(C(C)Nc2ccc(C)nc2C(=O)O)c2oc(-c3ccc4nn(C)cc4c3)c(C)c(=O)c2c1` (single isomer, unassigned) [Example 175, 3-[1-[3,6-Dimethyl-2-(2-methylindazol-5-yl)-4-oxo-chromen-8-yl]ethylamino]-6-methyl-pyridine-2-carboxylic acid]?
A: IC50 [1]: 500 to 1000 nM; IC50 [2]: < 500 nM

Q: What does the source list for `Cc1cc(C(C)Nc2ccc(C)nc2C(=O)O)c2oc(-c3nn(C)c4ccccc34)cc(=O)c2c1` (single isomer, unassigned) [Example 176, 6-Methyl-3-[1-[6-methyl-2-(1-methylindazol-3-yl)-4-oxo-chromen-8-yl]ethylamino]pyridine-2-carboxylic acid]?
A: IC50 [1]: > 10000 nM; IC50 [2]: < 500 nM

Q: Which IC50 [1] does the source give for `Cc1cc(C(C)Nc2ccc(Cl)nc2C(=O)O)c2oc(-c3nn(C)c4ccccc34)cc(=O)c2c1` (single isomer, unassigned) [Example 177, 6-Chloro-3-[1-[6-methyl-2-(1-methylindazol-3-yl)-4-oxo-chromen-8-yl]ethylamino]pyridine-2-carboxylic acid] here?
A: < 500 nM

Q: What about the IC50 [2] of the same compound?
A: < 500 nM

Q: Which IC50 [1] does the source give for `Cc1cc(C(C)Nc2ccc(Cl)nc2C(=O)O)c2oc(-c3ccc4nc(C)cn4c3)cc(=O)c2c1` (single isomer, unassigned) [Example 179, 6-Chloro-3-[1-[6-methyl-2-(2-methylimidazo[1,2-a]pyridin-6-yl)-4-oxo-chromen-8-yl]ethylamino]pyridine-2-carboxylic acid] here?
A: 5000 to 10000 nM

Q: What about the IC50 [2] of the same compound?
A: 500 to 1000 nM
